Experimental data as given in patent publication US11491162B2, “Combination of quinoline-4-carboxamides and benzonaphthyridine derivatives as antimalarial drug combination” (Merck Patent GmbH, priority 2018, dated 2022).
Counter-ions that a name gives are not always drawn.

Key:
[1] = test system: P. falciparum Pf3D7^0087/N9; test: In vivo SCID mouse model, oral therapeutic efficacy; parameters: species or system Plasmodium falciparum; details: for % control: day 7; for Activity: day 7 vs untreated control
Procedure: Compound efficacy was assessed against the Plasmodium falciparum strain Pf3D7^0087/N9 in vivo. Mice are infected intravenously with parasitized red blood cells on day 0. Experimental mice are generally treated at day 3, 4, 5, and 6 post-infection with an oral dose of the compound (single or 4-day oral dosing regimen) and are compared to an infected control group for reduction in parasitemia on day 7 (Maria Belen Jimenez-Díaz, Teresa Mulet, Sara Viera, Vanessa Gomez, Helen Garuti, Javier Ibanez, Angela Alvarez-Doval, Leonard D. Shultz, Antonio Martínez, Domingo Gargallo-Viola, and Inigo Angulo-Barturen, Improved Murine Model of Malaria Using Plasmodium falciparum Competent Strains and Non-Myelodepleted NOD-scid IL2Rgammanull Mice Engrafted with Human Erythrocytes, Antimicrob Agents Chemother. 2009, 53:4533).
PYRO and M1 were solubilized in a vehicle consisting of 70% Tween-80 and 30% ethanol, followed by a 10-fold dilution in H2O.

P-gp = molecular target: T1, P-gp (Homo sapiens, UniProt P08183); test: Inhibition of Pgp-mediated efflux of M1 in Caco-2 monolayer; type: cell-based; details: M1 as substrate
T1 construct: In Caco-2 monolayer cells, M1 is effluxed by P-gp transporters with a ratio of 18.2; endogenous in cells; host or cells: Caco-2 cells, differentiated monolayers on polycarbonate filter inserts
T1 sequence (P08183 whole entry): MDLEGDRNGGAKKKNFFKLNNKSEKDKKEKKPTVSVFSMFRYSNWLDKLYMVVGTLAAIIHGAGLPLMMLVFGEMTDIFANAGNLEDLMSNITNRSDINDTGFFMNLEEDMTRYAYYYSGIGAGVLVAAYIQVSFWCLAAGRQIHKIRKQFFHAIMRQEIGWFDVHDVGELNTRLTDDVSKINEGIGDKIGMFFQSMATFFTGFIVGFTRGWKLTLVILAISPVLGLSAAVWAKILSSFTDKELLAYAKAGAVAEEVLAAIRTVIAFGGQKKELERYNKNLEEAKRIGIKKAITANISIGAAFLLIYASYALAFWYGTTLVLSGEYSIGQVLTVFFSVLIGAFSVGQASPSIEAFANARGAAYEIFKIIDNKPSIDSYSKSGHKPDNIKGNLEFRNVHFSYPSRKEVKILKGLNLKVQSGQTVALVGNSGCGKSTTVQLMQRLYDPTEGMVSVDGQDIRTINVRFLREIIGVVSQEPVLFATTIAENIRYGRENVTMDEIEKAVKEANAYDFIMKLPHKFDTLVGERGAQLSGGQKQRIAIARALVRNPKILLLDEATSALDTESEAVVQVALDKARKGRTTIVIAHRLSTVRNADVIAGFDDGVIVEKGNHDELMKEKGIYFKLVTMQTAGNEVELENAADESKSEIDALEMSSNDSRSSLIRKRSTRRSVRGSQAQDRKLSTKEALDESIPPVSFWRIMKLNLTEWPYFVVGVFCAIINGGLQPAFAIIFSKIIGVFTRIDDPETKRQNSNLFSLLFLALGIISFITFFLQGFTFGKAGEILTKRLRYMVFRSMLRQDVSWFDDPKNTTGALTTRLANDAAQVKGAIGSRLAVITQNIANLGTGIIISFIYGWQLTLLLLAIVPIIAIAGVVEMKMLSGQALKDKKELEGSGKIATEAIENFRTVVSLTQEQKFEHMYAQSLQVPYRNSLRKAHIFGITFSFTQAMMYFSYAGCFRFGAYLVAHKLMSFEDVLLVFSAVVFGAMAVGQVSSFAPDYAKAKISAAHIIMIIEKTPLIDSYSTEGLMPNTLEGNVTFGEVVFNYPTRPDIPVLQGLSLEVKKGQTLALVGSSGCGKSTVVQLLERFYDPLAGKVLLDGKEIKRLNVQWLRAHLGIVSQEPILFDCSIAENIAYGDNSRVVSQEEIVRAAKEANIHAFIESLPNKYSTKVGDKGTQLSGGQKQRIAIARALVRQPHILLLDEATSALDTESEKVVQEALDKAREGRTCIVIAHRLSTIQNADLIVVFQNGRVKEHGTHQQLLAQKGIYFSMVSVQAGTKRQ

[2] = PYRO 4 × 1 MG/KG oral, SCID mice, Table 2
[3] = PYRO 4 × 3 MG/KG oral, SCID mice, Table 2
[4] = PYRO 4 × 9 MG/KG oral, SCID mice, Table 2
[5] = Table 4 entry 3: M1 0 mg/kg, PYRO 4 × 3 mg/kg, oral
[6] = Table 4 entry 3: M1 0 mg/kg, PYRO 4 × 3 mg/kg, oral, LLQ = <0.01% parasitemia
[7] = Table 4 entry 5: M1 0 mg/kg, PYRO 4 × 9 mg/kg, oral
[8] = Table 4 entry 5: M1 0 mg/kg, PYRO 4 × 9 mg/kg, oral, LLQ = <0.01% parasitemia
[9] = Table 4 entry 7: M1 0 mg/kg, PYRO 4 × 30 mg/kg, oral
[10] = Table 4 entry 7: M1 0 mg/kg, PYRO 4 × 30 mg/kg, oral, LLQ = <0.01% parasitemia

SMILES: COc1ccc2nc3cc(Cl)ccc3c(Nc3cc(CN4CCCC4)c(O)c(CN4CCCC4)c3)c2n1 [PYRO, pyronaridine tetraphosphate salt]
- % PARASITEMIA day 3 post infection [1, 2]: 0.63%
- % PARASITEMIA day 4 post infection [1, 2]: 1.21%
- % PARASITEMIA day 5 post infection [1, 2]: 3.14%
- % PARASITEMIA day 6 post infection [1, 2]: 4.53%
- % PARASITEMIA day 7 post infection [1, 2]: 7.55%
- % control ([1]; PYRO 4 × 1 MG/KG oral, SCID mice): 82.6%
- Activity ([1]; PYRO 4 × 1 MG/KG oral, SCID mice, 1 mg/kg): 17.4%
- Activity ([1]; PYRO 4 × 1 MG/KG oral, SCID mice, listed as pyronaridine, 1 mg/kg): 17%
- % PARASITEMIA day 3 post infection [1, 3]: 0.71%
- % PARASITEMIA day 4 post infection [1, 3]: 1%
- % PARASITEMIA day 5 post infection [1, 3]: 0.44%
- % PARASITEMIA day 6 post infection [1, 3]: 0.25%
- % PARASITEMIA day 7 post infection [1, 3]: 0.04%
- % control ([1]; PYRO 4 × 3 MG/KG oral, SCID mice): 0.4%
- Activity ([1]; PYRO 4 × 3 MG/KG oral, SCID mice, 3 mg/kg): 99.6%
- Activity ([1]; PYRO 4 × 3 MG/KG oral, SCID mice, listed as pyronaridine, 3 mg/kg): 99.6%
- % PARASITEMIA day 3 post infection [1, 4]: 0.7%
- % PARASITEMIA day 4 post infection [1, 4]: 0.28%
- % PARASITEMIA day 5 post infection [1, 4]: 0.15%
- % PARASITEMIA day 6 post infection [1, 4]: 0.063%
- % PARASITEMIA day 7 post infection ([1]; PYRO 4 × 9 MG/KG oral, SCID mice, Table 2, LLQ = <0.01% parasitemia, 9 mg/kg): <LLQ
- % PARASITEMIA day 7 post infection ([1]; PYRO 4 × 9 MG/KG oral, SCID mice, Table 2, LLQ = <0.01% parasitemia, listed as pyronaridine, 9 mg/kg): parasite-free
- % control ([1]; PYRO 4 × 9 MG/KG oral, SCID mice, LLQ = <0.01% parasitemia): <LLQ
- Activity ([1]; PYRO 4 × 9 MG/KG oral, SCID mice, 9 mg/kg): 100%
- Activity ([1]; PYRO 4 × 9 MG/KG oral, SCID mice, listed as pyronaridine, 9 mg/kg): > 99.9%
- % PARASITEMIA day 3 post infection [1, 5]: 1.16%
- % PARASITEMIA day 4 post infection [1, 5]: 0.67%
- % PARASITEMIA day 5 post infection [1, 5]: 0.08%
- % PARASITEMIA day 6 post infection [1, 5]: 0.01%
- % PARASITEMIA day 7 post infection [1, 6]: <LLQ
- % PARASITEMIA day 10 post infection [1, 6]: <LLQ
- % PARASITEMIA day 3 post infection [1, 7]: 1.09%
- % PARASITEMIA day 4 post infection [1, 7]: 0.34%
- % PARASITEMIA day 5 post infection [1, 7]: 0.05%
- % PARASITEMIA day 6 post infection [1, 8]: <LLQ
- % PARASITEMIA day 7 post infection [1, 8]: <LLQ
- % PARASITEMIA day 10 post infection [1, 8]: <LLQ
- % PARASITEMIA day 3 post infection [1, 9]: 1.13%
- % PARASITEMIA day 4 post infection [1, 9]: 0.14%
- % PARASITEMIA day 5 post infection [1, 9]: 0.02%
- % PARASITEMIA day 6 post infection [1, 9]: 0.01%
- % PARASITEMIA day 7 post infection [1, 10]: <LLQ
- % PARASITEMIA day 10 post infection [1, 10]: <LLQ
- concentrations at which PYRO inhibited Pgp-mediated efflux of M1 (P-gp): greater than 10 μM
